The structures appear in SMILES notation. The source made the active and inactive calls. The calls are words filed in the database; no cut-off is given here.

The test system of this assay is Mus musculus. Description: Suppression of lung injury in mouse model of influenza A virus H1N1 infection-induced lung injury assessed as decrease in lung resistance at 30 ug/ml dosed via drinking water. It counts as functional, organism-based.

For `c1ccc(-c2ccc(CNCCNCc3ccc(-c4ccccn4)cc3)cc2)nc1`, the result was Active.

The record behind these values is ChEMBL document CHEMBL4419167, “Compositions and methods for treating respiratory injury or disease” (2018).
